Assay results published in ChEMBL document CHEMBL3352618, “Discovery of novel pyrimidine and malonamide derivatives as TGR5 agonists” (Bioorg Med Chem Lett, 2014).

How the values were obtained:
Assay type in all cases: ADME, organism-based
[1] = Oral bioavailability in male ICR mouse at 10 mg/kg; conditions: in vivo
Mus musculus [2] = assay: Mean residence time (last) in male ICR mouse at 5 mg/kg, iv; set-up: dose 5 mg/kg, route intravenous; conditions: in vivo
[3] = Clearance in male ICR mouse at 10 mg/kg, po; set-up: dose 10 mg/kg, route oral; conditions: in vivo
[4] = Tmax in male ICR mouse at 10 mg/kg, po; set-up: dose 10 mg/kg, route oral; conditions: in vivo
Mus musculus [5] = assay: Clearance in male ICR mouse at 5 mg/kg, iv; set-up: dose 5 mg/kg, route intravenous; conditions: in vivo
[6] = Cmax in male ICR mouse at 10 mg/kg, po; set-up: dose 10 mg/kg, route oral; conditions: in vivo
[7] = AUC (0 to 7 hrs) in male ICR mouse at 10 mg/kg, po; set-up: time < 7 hr, dose 10 mg/kg, route oral; conditions: plasma
[8] = Half life in male ICR mouse at 5 mg/kg, iv; set-up: dose 5 mg/kg, route intravenous; conditions: in vivo
Mus musculus [9] = assay: Volume of distribution at steady state in male ICR mouse at 5 mg/kg, iv; set-up: dose 5 mg/kg, route intravenous; conditions: in vivo
Mus musculus [10] = assay: Volume of distribution at steady state in male ICR mouse at 10 mg/kg, po; set-up: dose 10 mg/kg, route oral; conditions: in vivo
[11] = AUC (0 to 7 hrs) in male ICR mouse at 5 mg/kg, iv; set-up: time < 7 hr, dose 5 mg/kg, route intravenous; conditions: plasma
[12] = Half life in male ICR mouse at 10 mg/kg, po; set-up: dose 10 mg/kg, route oral; conditions: in vivo
[13] = Mean residence time (last) in male ICR mouse at 10 mg/kg, po; set-up: dose 10 mg/kg, route oral; conditions: in vivo

bioavailability [1]: 13.9%
MRT (Mus musculus [2]): 0.2 h
CL/F [3]: 22.1 L/h/kg
Tmax [4]: 1 h
CL (Mus musculus [5]): 3.49 L/h/kg
Cmax [6]: 0.236 µg/mL
AUC(0-t) at 7 h [7]: 0.397 µg·h/mL
half-life [8]: 1.45 h
Vdss (Mus musculus [9]): 7.31 L/kg
Vdss (Mus musculus [10]): 90.5 L/kg
AUC(0-t) at 7 h [11]: 1.43 µg·h/mL
half-life [12]: 2.83 h
MRT last [13]: 1.97 h
Structure (SMILES): CN1CCN(C(=O)c2cnc(O)nc2Oc2cc(Cl)ccc2Cl)c2ccccc21
